Results published in article PMC11169542, “A probe for NIR-II imaging and multimodal analysis of early Alzheimer’s disease by targeting CTGF” (Nature Communications, 2024).
Ends that are not written are not given here.

Tests used:
[1] = Absolute quantum yield, integrated sphere technique; assay type: physicochemical
Protocol: Figure R6. Stability of DGC in AD brains. Monitoring fluorescence intensity of DGC in brain of WT mice and 3-month-old APP/PS1 mice for 24 h (left). In vivo and ex vivo NIR-II imaging of brains after DGC injected for 24 h (right).
The absolute quantum yield (QY) of DGC probe was measured to be ~0.7% using an […]
for biological applications. Although this QY is not high, but sufficient to produce a bright signal in the AD mouse brain for detection in vivo in this study.
Reviewer 3: The co-localization coefficient should be calculated in Figure 2d. […]
was calculated by Image J software. The co-localization coefficient (Pearson's correlation coefficient) of DGC and CTGF antibodies in Figure 2d was 0.946 (Fig. R15).
Figure R15. The co-localization coefficient (Pearson's correlation coefficient) of DGC and CTGF […]

[2] = target: T1, CTGF (Homo sapiens, UniProt P29279); assay: Affinity between DGC/DAG and CTGF protein by SPR (BIAcore); assay type: binding; parameters: purchased Abcam ab283457; details: ratio of SPR KD values
T1 sequence (P29279 27-349): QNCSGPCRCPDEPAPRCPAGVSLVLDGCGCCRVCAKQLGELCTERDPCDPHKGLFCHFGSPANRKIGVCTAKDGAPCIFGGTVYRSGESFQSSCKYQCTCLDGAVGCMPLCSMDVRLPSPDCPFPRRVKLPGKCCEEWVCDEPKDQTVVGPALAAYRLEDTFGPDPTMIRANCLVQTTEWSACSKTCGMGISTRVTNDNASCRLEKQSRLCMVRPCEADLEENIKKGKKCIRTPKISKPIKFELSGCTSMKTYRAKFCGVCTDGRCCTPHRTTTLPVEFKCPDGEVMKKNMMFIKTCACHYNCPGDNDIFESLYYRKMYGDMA
Protocol: Real-time binding and kinetic analyses by surface plasmon resonance (SPR) were performed on a BIAcore 8 K^+ instrument (Pharmacia Biosensor AB). The recombinant Human CTGF protein (Abcam, Cat#ab283457) was immobilized on a CM5 chip by using an amine coupling kit, and the remaining coupling sites were blocked with ethanolamine. The eluent contained PBS and 0.005% Tween 20. Binding was evaluated over a range of DAG (0.5–16 μM) or DGC (0.01– 0.16 μM) concentrations at 25 °C. Kinetic parameters were further determined with Biacore Insight Evaluation 3.0 software.

[3] = test system: CTGF; assay: DGC labelling of CTGF in cells by fluorescence imaging (CLSM); assay type: cell-based; details: for FL Intensity of DGC per cell: 55 μM DGC 60 min, CLSM
Protocol: The U87MG, SH-SY5Y, and CTX TNA2 cells in confocal dishes were fixed with 4% paraformaldehyde solution (PFA) for 30 min. Next, the cells were washed with cold PBS three times, and 3% BSA in PBS solution was introduced to the cells to block the nonspecific recognition sites. Then, the cells were incubated with 55 μM DGC for 60 min at room temperature. The control cells were only incubated with a culture medium. Next, the nuclei were stained with 5 μg/mL DAPI solution for 5 min. Finally, the cells were observed by a confocal laser scanning microscope (CLSM, PerkinElmer, USA). The fluorescence intensity of each cell was measured by ImageJ software, the red channel was extracted by clicking Split Channels, and the red fluorescent region, except the nucleus was selected by Freehand selections. Then the average fluorescence intensity in this region was measured and recorded for statistical analysis.
To further determine the specificity of DGC to CTGF, immunofluorescence staining was performed with CTGF antibodies to determine the location of CTGF in cells. First, U87MG cells in confocal dishes were fixed with 4% PFA for 30 min. Next, the cells were washed with PBS three times, and 3% bovine serum albumin (BSA) in PBS solution. Then, the cells were incubated with CTGF antibody (dilution 1:100, Abcam, Cat#ab6992) in PBS for 4 h at 4 °C, and FITC-labeled Goat Anti-Rabbit IgG (H + L) (1: dilution 1:200, Bioss, Cat#bs-0370R-FITC) in 3% BSA solution was added to the cells for another 30 min at 37 °C in the dark. Subsequently, 55 μM DGC were incubated with the cells for 1 h. Finally, the cells were stained with DAPI for 5 min and washed with PBS before the CLSM image (Nikon).
Moreover, a binding site blocking study was performed to confirm the specificity of the DGC to CTGF. First, U87MG cells were fixed with 4% PFA. Then, a PBS solution containing 3% BSA was used to block the nonspecific recognition sites for 30 min. After BSA blocking, the cells were pre-incubated with 5 mM of free DAG peptide for 1 h, followed by 55 μM DGC added for 60 min. Then, DAPI (5 μg/mL) was added to U87MG cells to stain the nuclei. Finally, the cells were imaged by the CLSM system.

[4] = Biosafety: blood tests and organ pathological analysis (H&E staining); assay type: in vivo; details: C57BL/6J mice, 20 mg/kg DGC, vs untreated normal mice
Source text: In order to clarify the NIR-II signal in AD brains when in vivo imaging is arisen from the DGC probe that bound to CTGF, we selected 3-month-old APP/PS1 mice representing early-stage AD and the age-matched WT mice as control to performed ex vivo multimodal analysis of the brain sections. […] To exclude the influence of vascular retention, we emptied the cerebral vessels by cardiac perfusion and performed ex vivo imaging of the brains. […] For brain sections made from AD mice after tail vein injection of DGC, the red fluorescence observation and LA-ICP-TOF-MS of DGC, as well as a POD-like catalysis test were performed. […] In Fig. 6c, the colocalization of DGC (red fluorescence) and CTGF (green fluorescence) on the ex vivo brain sections confirmed the specificity of DGC targeting CTGF in vivo. To further identify the cellular target of DGC in the brain of APP/PS1 mice, we carried out immunofluorescence staining on the ex vivo brain sections after tail vein injection of DGC where cell-specific fluorescent antibodies for microglia (Iba 1), neurons (NeuN), vascular endothelial cell (CD31) and reactive astrocytes (GFAP) were applied. […] The biosafety of DGC in C57BL/6J mice under the NIR-II imaging condition was evaluated by blood tests (blood cells and biochemical analysis) and organ pathological analysis (H&E staining).

## DGC: CTGF-targeting peptide-coated gold nanocluster: one Au26 gold nanocluster coated by eight DAG cyclic peptides, NIR-II and red fluorescence (CDAGRKQKC; also: cyclic peptide, ring not given here, eight peptides on one Au26 nanocluster via Cys Au-S bonds)
[1]
  absolute quantum yield (QY): ~ 0.7%
[2]
  binding affinity of DGC to CTGF relative to free DAG peptide: more than 1000 times
[3]; U87MG cells pre-incubated with 5 mM free DAG 1 h, then 55 μM DGC 60 min
  labelling of CTGF after blocking with free DAG peptide: cannot label CTGF in cells pre-blocked by free DAG peptides
[3]; U87MG cells, ImageJ
  co-localization coefficient (Pearson's correlation coefficient) of DGC and CTGF antibody: 0.946
[3]; fixed CTX TNA2 cells, replicate 1
  FL Intensity of DGC per cell: 5.779
[3]; fixed CTX TNA2 cells, replicate 2
  FL Intensity of DGC per cell: 3.821
[3]; fixed CTX TNA2 cells, replicate 3
  FL Intensity of DGC per cell: 8.33
[3]; fixed SH-SY5Y cells, replicate 1
  FL Intensity of DGC per cell: 14.6594
[3]; fixed SH-SY5Y cells, replicate 2
  FL Intensity of DGC per cell: 16.8684
[3]; fixed SH-SY5Y cells, replicate 3
  FL Intensity of DGC per cell: 12.4094
[3]; fixed U87MG cells, replicate 1
  FL Intensity of DGC per cell: 36.9955
[3]; fixed U87MG cells, replicate 2
  FL Intensity of DGC per cell: 33.5045
[3]; fixed U87MG cells, replicate 3
  FL Intensity of DGC per cell: 35.4955
[4]
  abnormalities in blood parameters and major organs: did not induce any abnormalities in blood parameters and major organs
